Results as given in ChEMBL document CHEMBL1201861, “Genomics of Drug Sensitity in Cancer screening data, Wellcome Trust Sanger Institute”.
pIC50: −log10 of the molar value.

How the values were obtained:
Assay in all cases: cells
RS4-11 = type: functional, cell-based, Homo sapiens; conditions: Homo sapiens, RS4-11
Description: SANGER: Inhibition of human RS4-11 cell growth in a cell viability assay.

HH = type: functional, cell-based, Homo sapiens; conditions: Homo sapiens, HH
Description: SANGER: Inhibition of human HH cell growth in a cell viability assay.

MS-1 = type: functional, cell-based, Homo sapiens; conditions: Homo sapiens, MS-1
Description: SANGER: Inhibition of human MS-1 cell growth in a cell viability assay.

ES3 = type: functional, cell-based, Homo sapiens; conditions: Homo sapiens, ES3
Description: SANGER: Inhibition of human ES3 cell growth in a cell viability assay.

TE-11 = type: functional, cell-based; conditions: Homo sapiens
Description: SANGER: Inhibition of human TE-11 cell growth in a cell viability assay.

JVM-2 = type: functional, cell-based, Homo sapiens; conditions: Homo sapiens, JVM-2
Description: SANGER: Inhibition of human JVM-2 cell growth in a cell viability assay.

L-363 = type: functional, cell-based, Homo sapiens; conditions: Homo sapiens, L-363
Description: SANGER: Inhibition of human L-363 cell growth in a cell viability assay.

LC-2-ad = type: functional, cell-based, Homo sapiens; conditions: Homo sapiens, LC-2-ad
Description: SANGER: Inhibition of human LC-2-ad cell growth in a cell viability assay.

NCI-H1650 = type: functional, cell-based, Homo sapiens; conditions: Homo sapiens, NCI-H1650
Description: SANGER: Inhibition of human NCI-H1650 cell growth in a cell viability assay.

COLO-320-HSR = type: functional, cell-based, Homo sapiens; conditions: Homo sapiens, COLO-320-HSR
Description: SANGER: Inhibition of human COLO-320-HSR cell growth in a cell viability assay.

A388 = type: functional, cell-based; conditions: Homo sapiens
Description: SANGER: Inhibition of human A388 cell growth in a cell viability assay.

LAN-6 = type: functional, cell-based, Homo sapiens; conditions: Homo sapiens, LAN-6
Description: SANGER: Inhibition of human LAN-6 cell growth in a cell viability assay.

RCC10RGB = type: functional, cell-based, Homo sapiens; conditions: Homo sapiens, RCC10RGB
Description: SANGER: Inhibition of human RCC10RGB cell growth in a cell viability assay.

NCI-H23 = type: functional, cell-based, Homo sapiens; conditions: Homo sapiens, NCI-H23
Description: SANGER: Inhibition of human NCI-H23 cell growth in a cell viability assay.

NCI-H526 = type: functional, cell-based, Homo sapiens; conditions: Homo sapiens, NCI-H526
Description: SANGER: Inhibition of human NCI-H526 cell growth in a cell viability assay.

TGBC24TKB = type: functional, cell-based; conditions: Homo sapiens
Description: SANGER: Inhibition of human TGBC24TKB cell growth in a cell viability assay.

AM-38 = type: functional, cell-based, Homo sapiens; conditions: Homo sapiens, AM-38
Description: SANGER: Inhibition of human AM-38 cell growth in a cell viability assay.

SH-4 = type: functional, cell-based; conditions: Homo sapiens
Description: SANGER: Inhibition of human SH-4 cell growth in a cell viability assay.

ES6 = type: functional, cell-based; conditions: Homo sapiens
Description: SANGER: Inhibition of human ES6 cell growth in a cell viability assay.

NKM-1 = type: functional, cell-based, Homo sapiens; conditions: Homo sapiens, NKM-1
Description: SANGER: Inhibition of human NKM-1 cell growth in a cell viability assay.

SF-126 = type: functional, cell-based, Homo sapiens; conditions: Homo sapiens, SF-126
Description: SANGER: Inhibition of human SF126 cell growth in a cell viability assay.

LS-123 = type: functional, cell-based, Homo sapiens; conditions: Homo sapiens, LS-123
Description: SANGER: Inhibition of human LS-123 cell growth in a cell viability assay.

SW684 = type: functional, cell-based, Homo sapiens; conditions: Homo sapiens, SW684; read-out: IC50
Description: SANGER: Inhibition of human SW684 cell growth in a cell viability assay.

EKVX = type: functional, cell-based, Homo sapiens; conditions: Homo sapiens, EKVX
Description: SANGER: Inhibition of human EKVX cell growth in a cell viability assay.

Lu-65 = type: functional, cell-based, Homo sapiens; conditions: Homo sapiens, Lu-65
Description: SANGER: Inhibition of human LU-65 cell growth in a cell viability assay.

NCI-H82 = type: functional, cell-based, Homo sapiens; conditions: Homo sapiens, NCI-H82
Description: SANGER: Inhibition of human NCI-H82 cell growth in a cell viability assay.

LS-1034 = type: functional, cell-based, Homo sapiens; conditions: Homo sapiens, LS-1034
Description: SANGER: Inhibition of human LS-1034 cell growth in a cell viability assay.

JVM-3 = type: functional, cell-based, Homo sapiens; conditions: Homo sapiens, JVM-3
Description: SANGER: Inhibition of human JVM-3 cell growth in a cell viability assay.

KY821 = type: functional, cell-based, Homo sapiens; conditions: Homo sapiens, KY821
Description: SANGER: Inhibition of human KY821 cell growth in a cell viability assay.

KG-1 = type: functional, cell-based, Homo sapiens; conditions: Homo sapiens, KG-1
Description: SANGER: Inhibition of human KG-1 cell growth in a cell viability assay.

RKO = type: functional, cell-based, Homo sapiens; conditions: Homo sapiens, RKO
Description: SANGER: Inhibition of human RKO cell growth in a cell viability assay.

HAL-01 = type: functional, cell-based, Homo sapiens; conditions: Homo sapiens, HAL-01
Description: SANGER: Inhibition of human HAL-01 cell growth in a cell viability assay.

KURAMOCHI = type: functional, cell-based, Homo sapiens; conditions: Homo sapiens, KURAMOCHI
Description: SANGER: Inhibition of human KURAMOCHI cell growth in a cell viability assay.

NCI-H69 = type: functional, cell-based, Homo sapiens; conditions: Homo sapiens, NCI-H69
Description: SANGER: Inhibition of human NCI-H69 cell growth in a cell viability assay.

OS-RC-2 = type: functional, cell-based, Homo sapiens; conditions: Homo sapiens, OS-RC-2
Description: SANGER: Inhibition of human OS-RC-2 cell growth in a cell viability assay.

LU-139 = type: functional, cell-based, Homo sapiens; conditions: Homo sapiens, LU-139
Description: SANGER: Inhibition of human LU-139 cell growth in a cell viability assay.

NCI-H747 = type: functional, cell-based, Homo sapiens; conditions: Homo sapiens, NCI-H747
Description: SANGER: Inhibition of human NCI-H747 cell growth in a cell viability assay.

LAMA-84 = type: functional, cell-based, Homo sapiens; conditions: Homo sapiens, LAMA-84
Description: SANGER: Inhibition of human LAMA-84 cell growth in a cell viability assay.

A4-Fuk = type: functional, cell-based, Homo sapiens; conditions: Homo sapiens, A4-Fuk
Description: SANGER: Inhibition of human A4-Fuk cell growth in a cell viability assay.

SNU-5 = type: functional, cell-based, Homo sapiens; conditions: Homo sapiens, SNU-5
Description: SANGER: Inhibition of human NCI-SNU-5 cell growth in a cell viability assay.

D-263MG = type: functional, cell-based, Homo sapiens; conditions: Homo sapiens, D-263MG
Description: SANGER: Inhibition of human D-263MG cell growth in a cell viability assay.

LU-134-A = type: functional, cell-based, Homo sapiens; conditions: Homo sapiens, LU-134-A
Description: SANGER: Inhibition of human LU-134-A cell growth in a cell viability assay.

KE-37 = type: functional, cell-based, Homo sapiens; conditions: Homo sapiens, KE-37
Description: SANGER: Inhibition of human KE-37 cell growth in a cell viability assay.

C8166 = type: functional, cell-based, Homo sapiens; conditions: Homo sapiens, C8166
Description: SANGER: Inhibition of human C8166 cell growth in a cell viability assay.

CTV-1 = type: functional, cell-based, Homo sapiens; conditions: Homo sapiens, CTV-1
Description: SANGER: Inhibition of human CTV-1 cell growth in a cell viability assay.

EW-18 = type: functional, cell-based, Homo sapiens; conditions: Homo sapiens, EW-18; read-out: IC50
Description: SANGER: Inhibition of human EW-18 cell growth in a cell viability assay.

LXF-289 cell line = type: functional, cell-based; conditions: Homo sapiens
Description: SANGER: Inhibition of human LXF-289 cell growth in a cell viability assay.

QIMR-WIL = type: functional, cell-based, Homo sapiens; conditions: Homo sapiens, QIMR-WIL
Description: SANGER: Inhibition of human QIMR-WIL cell growth in a cell viability assay.

LB1047-RCC = type: functional, cell-based, Homo sapiens; conditions: Homo sapiens, LB1047-RCC
Description: SANGER: Inhibition of human LB1047-RCC cell growth in a cell viability assay.

HDLM-2 = type: functional, cell-based, Homo sapiens; conditions: Homo sapiens, HDLM-2
Description: SANGER: Inhibition of human HDLM-2 cell growth in a cell viability assay.

## NC1(c2ccc(-c3nc4ccn5c(=O)[nH]nc5c4cc3-c3ccccc3)cc2)CCC1 [MK-2206]
RS4-11
  pIC50: 6.46
HH
  pIC50: 6.52
MS-1
  pIC50: < 5.40
ES3
  pIC50: 5.60
TE-11
  pIC50: < 5.40
JVM-2
  pIC50: < 5.40
L-363
  pIC50: 6.08
LC-2-ad
  pIC50: < 5.40
NCI-H1650
  pIC50: < 5.40
COLO-320-HSR
  pIC50: < 5.40
A388
  pIC50: < 5.40
LAN-6
  pIC50: < 5.40
RCC10RGB
  pIC50: < 5.40
NCI-H23
  pIC50: < 5.40
NCI-H526
  pIC50: < 5.40
TGBC24TKB
  pIC50: < 5.40
AM-38
  pIC50: < 5.40
SH-4
  pIC50: < 5.40
ES6
  pIC50: < 5.40
NKM-1
  pIC50: 6.06
SF-126
  pIC50: < 5.40
LS-123
  pIC50: < 5.40
SW684
  pIC50: < 5.40
EKVX
  pIC50: < 5.40
Lu-65
  pIC50: < 5.40
NCI-H82
  pIC50: < 5.40
LS-1034
  pIC50: < 5.40
JVM-3
  pIC50: < 5.40
KY821
  pIC50: < 5.40
KG-1
  pIC50: < 5.40
RKO
  pIC50: 5.73
HAL-01
  pIC50: 6.21
KURAMOCHI
  pIC50: < 5.40
NCI-H69
  pIC50: < 5.40
OS-RC-2
  pIC50: 5.51
LU-139
  pIC50: < 5.40
NCI-H747
  pIC50: 5.49
LAMA-84
  pIC50: < 5.40
A4-Fuk
  pIC50: 6.33
SNU-5
  pIC50: < 5.40
D-263MG
  pIC50: < 5.40
LU-134-A
  pIC50: 5.41
KE-37
  pIC50: 6.23
C8166
  pIC50: < 5.40
CTV-1
  pIC50: < 5.40
EW-18
  pIC50: 5.62
LXF-289 cell line
  pIC50: 5.93
QIMR-WIL
  pIC50: 5.83
LB1047-RCC
  pIC50: 5.65
HDLM-2
  pIC50: < 5.40

## CC1(C)CCC(c2ccc(Cl)cc2)=C(CN2CCN(c3ccc(C(=O)NS(=O)(=O)c4ccc(N[C@H](CCN5CCOCC5)CSc5ccccc5)c(S(=O)(=O)C(F)(F)F)c4)cc3)CC2)C1 [NAVITOCLAX]
RS4-11
  pIC50: 7.59
HH
  pIC50: < 5.70
MS-1
  pIC50: 6.33
ES3
  pIC50: < 5.70
TE-11
  pIC50: < 5.70
JVM-2
  pIC50: < 5.70
L-363
  pIC50: < 5.70
LC-2-ad
  pIC50: < 5.70
NCI-H1650
  pIC50: < 5.70
COLO-320-HSR
  pIC50: < 5.70
A388
  pIC50: 5.77
LAN-6
  pIC50: < 5.70
RCC10RGB
  pIC50: < 5.70
NCI-H23
  pIC50: < 5.70
NCI-H526
  pIC50: < 5.70
TGBC24TKB
  pIC50: 6.34
AM-38
  pIC50: < 5.70
SH-4
  pIC50: < 5.70
ES6
  pIC50: < 5.70
NKM-1
  pIC50: 7.77
SF-126
  pIC50: < 5.70
LS-123
  pIC50: < 5.70
SW684
  pIC50: < 5.70
EKVX
  pIC50: < 5.70
Lu-65
  pIC50: < 5.70
NCI-H82
  pIC50: < 5.70
LS-1034
  pIC50: < 5.70
JVM-3
  pIC50: < 5.70
KY821
  pIC50: 7.53
KG-1
  pIC50: 7.35
RKO
  pIC50: < 5.70
HAL-01
  pIC50: 6.14
KURAMOCHI
  pIC50: < 5.70
NCI-H69
  pIC50: < 5.70
OS-RC-2
  pIC50: < 5.70
LU-139
  pIC50: 6.69
NCI-H747
  pIC50: < 5.70
LAMA-84
  pIC50: 6.23
A4-Fuk
  pIC50: < 5.70
SNU-5
  pIC50: < 5.70
D-263MG
  pIC50: < 5.70
LU-134-A
  pIC50: 6.73
KE-37
  pIC50: 6.94
C8166
  pIC50: < 5.70
CTV-1
  pIC50: < 5.70
EW-18
  pIC50: 7.16
LXF-289 cell line
  pIC50: < 5.70
QIMR-WIL
  pIC50: 7.37
LB1047-RCC
  pIC50: < 5.70
HDLM-2
  pIC50: < 5.70
